Reference: patent US20240277713A1 (Kadmon Corporation, LLC, priority 2022, published 2024)
Read-outs that look alike come from different tables or passages of the source.

Test: Toxicokinetic analysis in rat plasma (Example 5)
Assay type: in vivo
Settings: for Cmax / AUC(0-t): rat, plasma; for AUC(0-t): read-out: AUC0-24
Protocol: TK animals were dosed for 70 and 14 days for the males and females, respectively. Dosing of TK males and females was initiated simultaneously, continuing to euthanasia. Refrigerated daily aliquots of dosing formulations were brought to room temperature while continuously stirring for at least 30 minutes prior to dosing.

[1] = Group 14 (50 mg base/kg/day), Day 1

`CC(C)NC(=O)COc1cccc(-c2nc(Nc3ccc4[nH]ncc4c3)c3ccccc3n2)c1` [belumosudil, 2-{3-[4-(1H-indazol-5-ylamino)-2-quinazolinyl]phenoxy}-N-(propan-2-yl) acetamide] gave an AUC0-24 in rat plasma (Day 1, belumosudil 50 mg base/kg, F) of 49200 ng·h/mL, an AUC0-24 in rat plasma (Day 1, belumosudil 50 mg base/kg, M) of 20100 ng·h/mL and an AUC0-24 in rat plasma (Day 1, belumosudil 150 mg base/kg, F) of 95700 ng·h/mL. The AUC0-24 in rat plasma (Day 1, belumosudil 150 mg base/kg, M) was 81600 ng·h/mL, the AUC0-24 in rat plasma (Day 1, belumosudil 275 mg base/kg, F) was 122000 ng·h/mL and the AUC0-24 in rat plasma (Day 1, belumosudil 275 mg base/kg, M) was 96400 ng·h/mL. For the same compound, the AUC0-24 in rat plasma (Day 14, belumosudil 50 mg base/kg, F) was 26200 ng·h/mL, the AUC0-24 in rat plasma (Day 14, belumosudil 150 mg base/kg, F) was 99500 ng·h/mL and the AUC0-24 in rat plasma (Day 14, belumosudil 275 mg base/kg, F) was 209000 ng·h/mL. The AUC0-24 in rat plasma (Day 70, belumosudil 50 mg base/kg, M) was 21600 ng·h/mL, the AUC0-24 in rat plasma (Day 70, belumosudil 150 mg base/kg, M) was 70100 ng·h/mL and the AUC0-24 in rat plasma (Day 70, belumosudil 275 mg base/kg, M) was 191000 ng·h/mL. For the same compound, the “sex difference in AUC0-24, females higher than males” value [1] was ~2.44 fold, the “sex difference in Cmax, females higher than males” value [1] was “approximately 2.10 fold” and the Cmax (female, Sprague-Dawley, oral, 150 mg base/kg) was 9860 ng/mL. For the same compound, the AUC(0-t) (female, Sprague-Dawley, oral, 150 mg base/kg/day, females) was 99500 ng·h/mL, the Cmax (female, Sprague-Dawley, po, 50 mg/kg/day) was 3200 ng/mL and the AUC(0-t) (female, Sprague-Dawley, po, 50 mg/kg/day, 50 mg base/kg/day, females) was 26200 ng·h/mL. The Cmax (female, Sprague-Dawley, po, 275 mg/kg/day, Day 14, belumosudil 275 mg base/kg, F) was 14900 ng/mL, the AUC(0-t) (female, Sprague-Dawley, po, 275 mg/kg/day, 275 mg base/kg/day, females) was 209000 ng·h/mL and the Cmax (female, po, 50 mg/kg/day) was 4540 ng/mL. It also gave a Cmax (female, po, 150 mg/kg/day) of 5670 ng/mL, a Cmax (female, po, 275 mg/kg/day, Day 1, belumosudil 275 mg base/kg, F) of 7050 ng/mL and a Cmax (male, Sprague-Dawley, po, 50 mg/kg/day) of 2480 ng/mL. It also gave an AUC(0-t) (male, Sprague-Dawley, po, 50 mg/kg/day, 50 mg base/kg/day, males) of 21600 ng·h/mL, a Cmax (male, Sprague-Dawley, po, 150 mg/kg/day) of 10100 ng/mL and an AUC(0-t) (male, Sprague-Dawley, po, 150 mg/kg/day, 150 mg base/kg/day, males) of 70100 ng·h/mL. For the same compound, the Cmax (male, po, 50 mg/kg/day) was 2170 ng/mL, the Cmax (male, po, 150 mg/kg/day) was 5370 ng/mL and the Cmax (male, po, 275 mg/kg/day, Day 1, belumosudil 275 mg base/kg, M) was 7200 ng/mL. It also gave a Cmax (male, po, 275 mg/kg/day, Day 70, belumosudil 275 mg base/kg, M) of 20400 ng/mL.
